Results from PubChem BioAssay AID1996.
≈ marks a conversion by molar mass, not a printed value.

settings: buffer; pH 7.4; 200.0 µM

| Compound | solubility kinetic |
| --- | --- |
| COc1ccc(OC)c(/C=C2\N=C(c3ccccc3)OC2=O)c1 | 0.8 µg/mL (≈ 2.59 µM) |
| O=C1CCCN1CCCNc1ncccc1[N+](=O)[O-] | > 39.6 µg/mL |
| CCCNC(=O)c1ccc(COc2ccc(CCC)cc2OC)o1 | > 49.7 µg/mL |
| Cc1ccc(SCc2cn3c(C)cc(C)nc3n2)cc1 | > 42.5 µg/mL |
| COc1ccc([N+](=O)[O-])cc1NC(=O)COC(=O)C=C(C)C | 1.1 µg/mL (≈ 3.57 µM) |
| COc1cc(N)ccc1-c1cc2ccccc2oc1=O | > 40.1 µg/mL |
| Cc1cc(C)c(C)c(S(=O)(=O)NC(C)C(=O)O)c1C (configuration not stated) | > 42.8 µg/mL |
| Nc1nc(Nc2ccc(Cl)cc2)nc(NCc2ccco2)c1[N+](=O)[O-] | 1 µg/mL (≈ 2.77 µM) |
| CCOc1ccccc1CN1C(=O)NC2(CCCCCC2)C1=O | 46.6 µg/mL (≈ 147 µM) |
| CCOc1ccc2[nH]c3c(NCCCOC)ncnc3c2c1 | 36.4 µg/mL (≈ 121 µM) |
| O=c1c2ccccc2nc(/C=C/c2ccccn2)n1-c1ccccc1 | 0.6 µg/mL (≈ 1.84 µM) |
| CC(CC(=O)O)CC(=O)Nc1cccc([N+](=O)[O-])c1 (configuration not stated) | > 39.9 µg/mL |
| CN(C(=O)Cn1cc([N+](=O)[O-])ccc1=O)C1CCCCC1 | 41.7 µg/mL (≈ 142 µM) |
| O=S(=O)(NCC1CCCO1)c1ccccc1 (configuration not stated) | > 36.2 µg/mL |
| CNc1snc(C)c1C(=O)OCC(=O)N(C)Cc1ccccc1 | 49.8 µg/mL (≈ 149 µM) |
| CCOC(=O)Cc1nc(-c2cccc(C(F)(F)F)c2)no1 | 7.6 µg/mL (≈ 25.3 µM) |
| CCOC(=O)c1nn(-c2ccc3c(c2)OCCO3)cc1O | > 43.5 µg/mL |
| O=C(COc1ccc([N+](=O)[O-])cc1)NCCc1nc2ccccc2[nH]1 | 8.5 µg/mL (≈ 25 µM) |
| Cn1c(SCCc2ccc([N+](=O)[O-])cc2)nccc1=O | 25.9 µg/mL (≈ 88.9 µM) |
| COc1ccc(C(C)NC(=O)C23CC4CC(CC(C4)C2)C3)cc1 (configuration not stated) | 0.8 µg/mL (≈ 2.55 µM) |
| O=C(Nc1cccc(F)c1)c1ccco1 | 26.7 µg/mL (≈ 130 µM) |
| Cc1nccn1CC(O)COc1ccc(Cl)cc1Cl (configuration not stated) | > 45.2 µg/mL |
| COC(=O)c1cc2ccccc2n1Cc1ccc(Cl)nc1 | 1.5 µg/mL (≈ 4.99 µM) |
| COCCCNC(=O)C(=O)Nc1cc2c3c(c1)CCN3C(=O)CC2 | 49.4 µg/mL (≈ 149 µM) |
| CN(C)CCn1c(COc2ccccc2)nc2ccccc21.Cl.O | > 60.7 µg/mL |

| Compound | solubility kinetic |
| --- | --- |
| O=C(Nc1cccc(C(F)(F)F)c1)c1cncs1 | > 40.8 µg/mL |
| Cc1c(C(=O)N(C)Cc2ccc(OC(F)F)cc2)oc2ccccc12 | 6.5 µg/mL (≈ 18.8 µM) |
| CCCCOc1ccc(/C(O)=C(\C#N)c2nc3ccccc3[nH]2)cc1 | < 0.2 µg/mL |
| CCOC(=O)C1(Cc2cccc(F)c2)CCN(CC2CC2)CC1 | > 47.9 µg/mL |
| CNC(=O)N(C)c1ccc(C(O)(C(=O)OC)C(F)(F)F)cc1 (configuration not stated) | 46.7 µg/mL (≈ 146 µM) |
| Cc1cccc(NC(=S)NC2CCCC2)c1C | 34.1 µg/mL (≈ 137 µM) |
| COc1ccc(CC(=O)OCC(=O)NC2CCCC(C)C2C)cc1OC (configuration not stated) | > 54.5 µg/mL |
| C[C@@H]1C(NC(=O)c2ccccc2)CC2CC1C2(C)C (some centres not stated) | 6.4 µg/mL (≈ 24.9 µM) |
| NS(=O)(=O)c1ccc(CNC(=O)/C=C/c2cccc([N+](=O)[O-])c2)cc1 | 14.2 µg/mL (≈ 39.3 µM) |
| CCN(CC)CC(O)Cn1c(-c2cccc(Cl)c2)nc2cc(C)c(C)cc21 (configuration not stated) | 53.4 µg/mL (≈ 138 µM) |
| COc1cc(CNc2nc3ccccc3s2)cc(OC)c1OC | 48.4 µg/mL (≈ 146 µM) |
| FC(F)(F)c1ccccc1-n1c(-c2cnccn2)n[nH]c1=S | > 48.5 µg/mL |
| Cl.O=[N+]([O-])c1ccc(N2CCCNCC2)c2ncccc12 | 36.7 µg/mL |
| O=C(COC(=O)C1CCC(=O)N1)Nc1ccccc1OC(F)F (configuration not stated) | > 49.2 µg/mL |
| COc1ccc(CNc2ccc([N+](=O)[O-])cn2)cc1 | 3 µg/mL (≈ 11.6 µM) |
| COc1ccc(CCC(C)NCC(C)c2ccccc2)cc1 (configuration not stated) | > 44.6 µg/mL |
| CCCc1nc2oc3c(Cl)ncnc3c2c2c1CCCC2 | < 0.2 µg/mL |
| CCOc1ccc(N(C)Cc2cc(=O)oc3ccc(OCC)cc23)cc1 | 2.3 µg/mL (≈ 6.51 µM) |
| Cc1nnc(SCC(=O)NCC(=O)Nc2ccc(F)c(F)c2F)n1N | > 56.2 µg/mL |
| CCOc1ccccc1N1CN(C2CCCCC2)CNC1=S | > 47.9 µg/mL |
| CN(CCC#N)C(=O)c1cc2c(s1)-c1ccccc1SC2 | 24.9 µg/mL (≈ 79.2 µM) |
| COc1ccc(CN(C)C(=O)c2[nH]c(C)c(C(C)=O)c2C)cc1F | > 49.9 µg/mL |
| O=[N+]([O-])c1ccc(Oc2ccc(OCc3ccccc3)cc2)nc1 | < 0.3 µg/mL |
| COc1ccc(Nc2nc(C)cc(C)n2)cc1Cl.Cl | > 45 µg/mL |
| CCCCS(=O)(=O)N1CCCC(C(=O)NCC2CCCO2)C1 (configuration not stated) | 41.1 µg/mL (≈ 124 µM) |

| Compound | solubility kinetic |
| --- | --- |
| CC/C(O)=C1\C(=O)CCCC1=NCCc1nc2ccccc2[nH]1 | > 46.7 µg/mL |
| CC(NC(=O)C1=CC=CN2CCS(=O)(=O)N=C12)c1ccc(Cl)c(Cl)c1 (configuration not stated) | > 60 µg/mL |
| COc1ccc2c(c1)-c1nc(/N=C/c3cccc(OC)c3O)sc1CC2 | > 55 µg/mL |
| O=c1[nH]c2ccccc2n2c(C(F)(F)F)nnc12 | > 38.1 µg/mL |
| CCOc1ccc(OCCCCn2cnc3ccccc3c2=O)cc1 | 0.7 µg/mL (≈ 2.07 µM) |
| O=C1[C@@H]2CSCN2C(=O)CN1Cc1ccccc1F | > 42 µg/mL |
| O=C(Nc1ccc(OC(F)F)c(Cl)c1)c1ccccn1 | 1.4 µg/mL (≈ 4.69 µM) |
| C=CCNc1nc2c(c(=O)[nH]c(=O)n2C)n1CCOc1ccccc1 | 3.3 µg/mL (≈ 9.67 µM) |
| CCc1cc(C(=O)NCC(C)(C)N2CCOCC2)sc1C | > 46.6 µg/mL |
| COc1ccc(-n2ccc(=O)c(C(=O)O)n2)c(OC)c1 | > 41.4 µg/mL |
| COc1cccc(NC(=O)CN(C)C(=O)c2c(C)noc2C)c1 | > 47.6 µg/mL |
| CCc1ccccc1NS(=O)(=O)c1cccc2nsnc12 | 44.8 µg/mL (≈ 140 µM) |
| COc1ccccc1NS(=O)(=O)c1ccc2c(c1)OCCO2 | 48 µg/mL (≈ 149 µM) |
| Cn1c(N2CCCC2)nc2c1c(=O)[nH]c(=O)n2C | > 37.4 µg/mL |
| COc1ccccc1/C=N/OCc1ccc(C#N)cc1 | 0.9 µg/mL (≈ 3.38 µM) |
| CC(Oc1ccccc1)C(=O)OCC(=O)NC(=O)NC1CCCCC1 (configuration not stated) | 47.7 µg/mL (≈ 137 µM) |
| CCc1cc2c(Nc3ccc(O)cc3)nc(C)nc2s1.Cl | 13.4 µg/mL |
| CCCCOC(=O)C1=C(C)NC(=O)NC1c1ccc(OC)cc1 (configuration not stated) | 14.6 µg/mL (≈ 45.9 µM) |
| Cc1nn(C)c(C)c1NS(=O)(=O)c1ccc(Cl)s1 | > 45.9 µg/mL |
| CCc1nc(=O)c(-c2ccccc2)c(C)n1-c1ccccc1 | > 43.6 µg/mL |
| c1ccc(-c2cc(-c3ccccc3)on2)cc1 | < 0.5 µg/mL |
| Cc1c(Cl)cccc1NS(=O)(=O)c1cccc2nsnc12 | > 51 µg/mL |
| Cc1cc2c(cc1C)C(c1ccsc1)CC(=O)N2 (configuration not stated) | 5.1 µg/mL (≈ 19.8 µM) |

The remaining lines, values ahead:

| solubility kinetic | Compound |
| --- | --- |
| 33.6 µg/mL (≈ 118 µM) | CCCNC(=O)N1c2ccccc2Sc2ccccc21 |
| < 0.6 µg/mL | O=S(=O)(c1ccccc1F)N1CCc2ccccc2C1 |
| > 45 µg/mL | O=C(Nc1cccc(C(=O)O)c1)Nc1ccc2c(c1)OCO2 |
| > 46.5 µg/mL | O=C(Nc1cc2c3c(c1)CC(=O)N3CCC2)c1ccc(F)cc1 |
| 1 µg/mL (≈ 2.96 µM) | COc1ccccc1/C=C/C(=O)Nc1ccc(N2CCOCC2)cc1 |
| 41.3 µg/mL (≈ 107 µM) | Cc1ccc(S(C)(=O)=NC(=O)NC(=O)c2c(Cl)cccc2Cl)cc1 (configuration not stated) |
| 11.1 µg/mL (≈ 28.6 µM) | Cc1ccc(NC(=O)CN(C)C(=O)COc2ccccc2-c2ccccc2)cc1 |
| 12.9 µg/mL (≈ 48.6 µM) | CSc1ccc(C(=S)N2CCCCCC2)cc1 |
| 31.7 µg/mL (≈ 93.7 µM) | CC1CCCN(CC(=O)N2c3ccccc3Sc3ccccc32)C1 (configuration not stated) |
| 3.8 µg/mL (≈ 13 µM) | CC(NC(=O)c1cc2ccccc2oc1=O)c1ccccc1 (configuration not stated) |
| > 56 µg/mL | O=C(NC1=NCCS1)c1ccc(F)c(S(=O)(=O)N2CCOCC2)c1 |
| 38.8 µg/mL (≈ 124 µM) | CC(=O)c1c(-c2ccccc2)c2cc(Cl)ccc2n(C)c1=O |
| > 38.1 µg/mL | CCCC(C(=O)Nc1ccncc1)c1ccccc1 (configuration not stated) |
| < 0.3 µg/mL | CS(=O)(=O)N1CCc2cc(C(=O)Nc3cccc([N+](=O)[O-])c3)ccc21 |
| 10.1 µg/mL (≈ 27.4 µM) | Cc1ccccc1-c1nc(S(=O)(=O)c2ccccc2)c(N2CCCC2)o1 |
| 51.4 µg/mL (≈ 145 µM) | O=C(O)CCC(=O)Nc1ccc(S(=O)(=O)Nc2nccs2)cc1 |
| 1.4 µg/mL (≈ 4.15 µM) | CC(=O)c1ccc(N2CCN(C(=O)Nc3ccc(C)cc3)CC2)cc1 |
| 43.8 µg/mL (≈ 126 µM) | CCCOc1ccc(N2CC(C(=O)NC3=NCCS3)CC2=O)cc1 (configuration not stated) |
| 5.7 µg/mL (≈ 20.2 µM) | Cc1cccc(NC(=O)CC(=O)Nc2cccc(C)c2)c1 |
| 39.1 µg/mL (≈ 115 µM) | O=C(CN1CCOCC1)Nc1ccccc1C(=O)Nc1ccccc1 |
| 3.1 µg/mL (≈ 6.84 µM) | COc1ccc(CNC(=O)c2cc(S(=O)(=O)N3CCCCC3)ccc2Cl)cc1OC |
| 0.8 µg/mL (≈ 2.69 µM) | CC(=O)Nc1ccc(NC(=O)Nc2cc(C)cc(C)c2)cc1 |

| solubility kinetic | Compound |
| --- | --- |
| 0.5 µg/mL (≈ 1.58 µM) | COc1cc(C)nc(NC(=S)N(C)C(=O)c2ccccc2)n1 |
| < 0.6 µg/mL | CCc1ccc(OCCOC(=O)Nc2ccccc2)cc1 |
| > 81.9 µg/mL | COc1ccc(NC(=O)[C@@H](NS(=O)(=O)c2cccc(Cl)c2)C(C)C)cc1S(=O)(=O)N1CCOCC1 |
| 0.9 µg/mL (≈ 3.29 µM) | O=C(O/N=C1/CCCc2occc21)c1ccc(F)cc1 |
| > 42.4 µg/mL | CN1C(=O)N(c2ccc(Cl)cc2)C(C)(O)CC1(C)C (configuration not stated) |
| < 0.7 µg/mL | CC(C)c1cc(O)c(-c2ccccc2)c(=O)n1-c1ccc(Cl)cc1 |
| > 55.6 µg/mL | Cl.OCCN1CCN(c2nc3ccccc3nc2-c2ccccc2)CC1 |
| > 33 µg/mL | O=C(NCc1ccccc1)N1CCOCC1 |
| 4.7 µg/mL (≈ 13 µM) | Cc1ccc(-c2cc(C(=O)NCC3CCCO3)c3ccccc3n2)cc1C (configuration not stated) |
| 1.4 µg/mL (≈ 4.42 µM) | Cc1ccc(C)c(C(C)NC(=S)NCc2ccc(F)cc2)c1 (configuration not stated) |
| 9.4 µg/mL (≈ 23.5 µM) | NC(=O)C1CCN(C(=O)c2cc(-c3ccc(Cl)s3)nc3ccccc23)CC1 |
| 18.9 µg/mL (≈ 56.9 µM) | O=C(/C=C/c1ccc([N+](=O)[O-])cc1)OCC(=O)N1CCCCCC1 |
| > 42.9 µg/mL | COc1ccccc1N1CCN(C(=O)c2ccco2)CC1 |
| > 44.5 µg/mL | CC(C(=O)N1CCCC1)N(c1ccccc1)S(C)(=O)=O (configuration not stated) |
| 2.5 µg/mL (≈ 7.14 µM) | Cc1cc(NC(=O)c2coc(=O)c(Br)c2)ccc1C(C)C |
| 31.5 µg/mL (≈ 118 µM) | Cc1ccc(C2N(C)C(=O)c3ccccc3N2C)cc1 (configuration not stated) |
| 66.4 µg/mL (≈ 148 µM) | CCOc1ccc(NS(=O)(=O)c2cc(C(=O)NCCN3CCOCC3)ccc2C)cc1 |
| > 34.8 µg/mL | Cc1ccc(-c2csc(CC(N)=O)n2)cc1 |
| > 44.3 µg/mL | O=C(O)/C=C/C(=O)Nc1ccc(C(=O)c2ccccc2)cc1 |
| 54.2 µg/mL (≈ 128 µM) | Cc1cc(C)cc(NS(=O)(=O)c2ccc(NC(=O)c3ccccc3C(=O)O)cc2)c1 |
| 1.4 µg/mL (≈ 3.65 µM) | CN1CCN(c2oc(-c3ccccc3)nc2S(=O)(=O)c2ccccc2)CC1 |
| 14 µg/mL | Cc1ccc(C)c(OCCCN2CCc3ccccc3C2)c1.Cl |
